Measurements reported in patent publication US8278461B2, “Stable amorphous form of carvedilol dihydrogen phosphate with stabilizer” (Lupin Limited, priority 2007, dated 2012).
Where two headings read alike, the source gives them in different places.

What was measured:
[1] = Glass transition temperature of the amorphous form; type: physicochemical
Description: We have filed an Indian patent application 292/KOL/2007 dated 27 Feb. 2007 in Indian Patent Office on amorphous form of carvedilol dihydrogen phosphate and the process for its preparation. The amorphous form obtained by the process described in this application has glass transition temperature below 60° C. The amorphous solids in general having low glass transition temperature not only create complications during formulation but also has stability related problems on storage. The glass transition temperature is the temperature, below which the physical properties of amorphous materials vary in a manner similar to those of a crystalline phase (glassy state), and above which amorphous materials behave like liquids (rubbery state). A materials glass transition temperature is the temperature below which molecules have little relative mobility. Thus, there exist a need to develop stable amorphous form of carvedilol dihydrogen phosphate which have improved characteristics. […] The amorphous carvedilol obtained without stabiliser having glass transition temperature 55-56° C. while the stable amorphous form of the present invention has glass transition temperature in the range between 76 to 185° C. The phosphorous content of the stable amorphous form of the present invention is between 18-20% on anhydrous basis.

[2] = amorphous form obtained by the process of Indian application 292/KOL/2007; cited from earlier work

## COc1ccccc1OCCNCC(O)COc1cccc2[nH]c3ccccc3c12.O=P(O)(O)O (centres unmarked) [carvedilol dihydrogen phosphate]
[1]
  glass transition temperature: 55-56 °C
[2]
  glass transition temperature: below 60 °C
